This is an account of results in ChEMBL document CHEMBL5303304, “EUbOPEN Chemogenomics Library - IncuCyte” (2023).

Type in all cases: toxicity, cell-based
Data set [1] has as its system HEK-293T. The data set is described as follows: Incucyte cell viability with HEK293T. Particulars: human, 10 µM, compound concentration 10 uM.
Data set [2] deals with Fibroblast. Description: Incucyte cell viability with human fibroblast. As to conditions: 10 µM, compound concentration 10 uM.
Data set [3] relates to U2OS. Description: Incucyte cell viability with U2OS. As to conditions: human, 10 µM, compound concentration 10 uM.

Where “and” joins values, the source holds several entries; their conditions need not be identical. Equal values may be shown once.
Note: unitless GR value; below 1 slowed growth and below 0 cell loss.

For the molecule `Cl.NCC(O)c1ccc(O)cc1` (centres undefined) [OCTOPAMINE HYDROCHLORIDE], the “Growth Rate” value in data set [1] (0 h, replicate number 1) was 0.76; in data set [1] (0 h, replicate number 2), 0.66; in data set [1] (6 h, replicate number 1) it was 0.45; in data set [1] (6 h, replicate number 2), 0.94; in data set [2] (6 h, replicate number 2), -0.67; in data set [2] (12 h, replicate number 2), 0.8. For the same molecule, the “Growth Rate” value in data set [2] (18 h, replicate number 1) is recorded as -0.19; in data set [3] (0 h, replicate number 1) it was 0.94; in data set [3] (0 h, replicate number 2) it was -0.87; in data set [3] (6 h, replicate number 1) it was 0.64; in data set [3] (6 h, replicate number 2) it was 0.65; in data set [3] (12 h, replicate number 1), 0.99. Moreover, the “Growth Rate” value in data set [3] (12 h, replicate number 2) worked out at 0.92; in data set [3] (18 h, replicate number 1) it was 0.83; in data set [3] (18 h, replicate number 2), 0.87; in data set [3] (24 h, replicate number 1), 0.97; in data set [3] (24 h, replicate number 2), 0.95.

In the case of `CCCCCCCC/C=C\CCCCCCCC(=O)NCCO` [OLEOYLETHANOLAMIDE], the “Growth Rate” value in data set [1] (0 h, replicate number 1) was -0.38; in data set [1] (6 h, replicate number 2) it was 0.43; in data set [1] (12 h, replicate number 2) it was 0.83; in data set [1] (18 h, replicate number 2), 0.75; in data set [1] (24 h, replicate number 2), 0.62; in data set [2] (6 h, replicate number 1) it was 0.19. Moreover, the “Growth Rate” value in data set [2] (12 h, replicate number 1) was 0.64; in data set [2] (12 h, replicate number 2), 0.96; in data set [2] (18 h, replicate number 1) it was 0.35; in data set [2] (24 h, replicate number 1), 0.78; in data set [2] (24 h, replicate number 2), 0.98; in data set [3] (0 h, replicate number 1), -0.18. For the same molecule, the “Growth Rate” value is listed as 0.62 in data set [3] (0 h, replicate number 2); 0.87 in data set [3] (6 h, replicate number 1); 0.54 in data set [3] (6 h, replicate number 2); 0.87 in data set [3] (12 h, replicate number 1); 0.68 in data set [3] (12 h, replicate number 2); 0.81 in data set [3] (18 h, replicate number 1). Also, the “Growth Rate” value in data set [3] (18 h, replicate number 2) was 0.74; in data set [3] (24 h, replicate number 1) it was 0.79; in data set [3] (24 h, replicate number 2) it was 0.76.

`CCCCCCCC/C=C\CCCCCCCC(=O)NCc1ccc(O)c(OC)c1` [OLVANIL]: the “Growth Rate” value is reported as 0.7 in data set [1] (0 h, replicate number 2); -0.94 in data set [1] (6 h, replicate number 1); -0.75 in data set [1] (12 h, replicate number 1); -0.47 in data set [1] (18 h, replicate number 1); -0.25 in data set [1] (24 h, replicate number 1); 0.97 in data set [2] (0 h, replicate number 1). Further, the “Growth Rate” value was -0.71 in data set [2] (0 h, replicate number 2); 0.83 in data set [2] (12 h, replicate number 2); 0.53 in data set [2] (18 h, replicate number 2); 0.91 in data set [2] (24 h, replicate number 1); 0.68 in data set [2] (24 h, replicate number 2); 0.77 in data set [3] (6 h, replicate number 1). For the same molecule, the “Growth Rate” value in data set [3] (6 h, replicate number 2) came to 0.84; in data set [3] (12 h, replicate number 2) it was 0.94; in data set [3] (18 h, replicate number 1), 0.88; in data set [3] (24 h, replicate number 1), 0.87.

For `O=C(O)/C=C/c1ccc(Cn2ccnc2)cc1` [OZAGREL], the “Growth Rate” value is reported as 0.5 in data set [1] (0 h, replicate number 1); 0.4 in data set [1] (0 h, replicate number 2); 0.92 in data set [1] (12 h, replicate number 2); 0.96 in data set [1] (18 h, replicate number 1); -1 in data set [2] (0 h, replicate number 1); -0.85 in data set [2] (0 h, replicate number 2). The “Growth Rate” value in data set [2] (18 h, replicate number 1) was 0.97; in data set [2] (24 h, replicate number 1), 0.78; in data set [3] (0 h, replicate number 2) it was 0.65; in data set [3] (6 h, replicate number 1), 0.91; in data set [3] (12 h, replicate number 2) it was 0.94; in data set [3] (24 h, replicate number 1), 0.94.

On to `CC(=O)O[C@H]1C(=O)[C@@]2(C)[C@H]([C@H](OC(=O)c3ccccc3)[C@]3(O)C[C@H](OC(=O)[C@H](O)[C@@H](NC(=O)c4ccccc4)c4ccccc4)C(C)=C1C3(C)C)[C@]1(OC(C)=O)CO[C@@H]1C[C@@H]2O` [PACLITAXEL], for which the “Growth Rate” value is given as -0.33 in data set [1] (6 h, replicate number 1); -0.69 in data set [1] (6 h, replicate number 2); -0.21 in data set [1] (12 h, replicate number 1); -0.41 in data set [1] (12 h, replicate number 2); -0.08 in data set [1] (18 h, replicate number 1); -0.22 in data set [1] (18 h, replicate number 2). For the same molecule, the “Growth Rate” value was 0.05 in data set [1] (24 h, replicate number 1); -0.02 in data set [1] (24 h, replicate number 2); -1 in data set [2] (0 h, replicate number 1); -0.64 in data set [2] (6 h, replicate number 1); -0.99 in data set [2] (6 h, replicate number 2); -0.7 in data set [2] (12 h, replicate number 1). The “Growth Rate” value in data set [2] (12 h, replicate number 2) was -0.57; in data set [2] (18 h, replicate number 1), -0.54; in data set [2] (18 h, replicate number 2), -0.67; in data set [2] (24 h, replicate number 1) it was -0.39; in data set [2] (24 h, replicate number 2) it was -0.34; in data set [3] (0 h, replicate number 1), -0.26. For the same molecule, the “Growth Rate” value in data set [3] (0 h, replicate number 2) was -0.23; in data set [3] (6 h, replicate number 1), -0.32; in data set [3] (6 h, replicate number 2), -0.43; in data set [3] (12 h, replicate number 1) it was -0.21; in data set [3] (12 h, replicate number 2), -0.45; in data set [3] (18 h, replicate number 1) it was -0.26. Moreover, the “Growth Rate” value in data set [3] (18 h, replicate number 2) is reported as -0.43; in data set [3] (24 h, replicate number 1), -0.07; in data set [3] (24 h, replicate number 2) it was -0.18.

In the case of `CC(=O)c1c(C)c2cnc(Nc3ccc(N4CCNCC4)cn3)nc2n(C2CCCC2)c1=O` [PALBOCICLIB], the “Growth Rate” value in data set [1] (0 h, replicate number 1) is recorded as 0.2; in data set [1] (0 h, replicate number 2) it was 0.78; in data set [1] (6 h, replicate number 1) it was 0.61; in data set [1] (6 h, replicate number 2) it was 0.69; in data set [1] (12 h, replicate number 1) it was 0.77; in data set [1] (12 h, replicate number 2), 0.81. In addition, the “Growth Rate” value was 0.78 in data set [1] (18 h, replicate number 1); 0.8 in data set [1] (18 h, replicate number 2); 0.83 and 0.98 in data set [1] (24 h, replicate number 1); 0.75 in data set [1] (24 h, replicate number 2); -0.2 in data set [2] (0 h, replicate number 1); 0.91 in data set [2] (6 h, replicate number 1). Further, the “Growth Rate” value is 0.92 in data set [2] (12 h, replicate number 1); 0.87 in data set [2] (18 h, replicate number 1); 0.98 in data set [2] (18 h, replicate number 2); 0.79 in data set [2] (24 h, replicate number 1); 0.72 and 0.58 in data set [3] (6 h, replicate number 1); 0.97 in data set [3] (6 h, replicate number 2). Also, the “Growth Rate” value is 0.87 and 0.84 in data set [3] (12 h, replicate number 1); 0.59 and 0.72 in data set [3] (18 h, replicate number 1); 0.76 and 0.92 in data set [3] (24 h, replicate number 1).

In the case of `Cl.O=C1c2cccc3c2[C@H](CCC3)CN1[C@@H]1CN2CCC1CC2` [PALONOSETRON HYDROCHLORIDE], the “Growth Rate” value in data set [1] (0 h, replicate number 1) is 0.61; in data set [1] (6 h, replicate number 1), 0.51; in data set [1] (6 h, replicate number 2) it was -0.08; in data set [1] (12 h, replicate number 1), 0.41; in data set [1] (12 h, replicate number 2), 0.03; in data set [1] (18 h, replicate number 1), 0.55. For the same molecule, the “Growth Rate” value in data set [1] (18 h, replicate number 2) is reported as 0.08; in data set [1] (24 h, replicate number 1), 0.34; in data set [1] (24 h, replicate number 2), 0.19; in data set [2] (0 h, replicate number 2) it was 0.54; in data set [2] (6 h, replicate number 1), -0.99; in data set [2] (24 h, replicate number 2), 0.92. Further, the “Growth Rate” value in data set [3] (0 h, replicate number 1) is listed as -0.52; in data set [3] (0 h, replicate number 2), -0.79; in data set [3] (24 h, replicate number 1), 0.92; in data set [3] (24 h, replicate number 2), 0.98.

Take `Cl.Cl.Fc1ccc([C@@H]2CCNC[C@H]2COc2ccc3c(c2)OCO3)cc1.Fc1ccc([C@@H]2CCNC[C@H]2COc2ccc3c(c2)OCO3)cc1.O` [PAROXETINE HYDROCHLORIDE]: the “Growth Rate” value is reported as 0.25 in data set [1] (6 h, replicate number 1); 0.86 in data set [1] (24 h, replicate number 2); -0.26 in data set [2] (6 h, replicate number 1); -1 in data set [2] (6 h, replicate number 2); -1 in data set [2] (12 h, replicate number 1); 0.54 in data set [2] (12 h, replicate number 2). Besides, the “Growth Rate” value is reported as 0.59 in data set [2] (18 h, replicate number 2); 0.62 in data set [2] (24 h, replicate number 2); -1 in data set [3] (0 h, replicate number 2); 0.82 in data set [3] (6 h, replicate number 1); 0.89 in data set [3] (6 h, replicate number 2); 0.84 in data set [3] (12 h, replicate number 2). For the same molecule, the “Growth Rate” value in data set [3] (18 h, replicate number 2) is 0.89; in data set [3] (24 h, replicate number 2) it was 0.98.
